# Literature values in US8841476B2, “Preparation of crystalline ezatiostat hydrochloride ansolvate form D” (Telik, Inc., priority 2010, dated 2014).
# Where two headings read alike, the source gives them in different places.
# How the values were obtained:
# [1] = tested on: HL-60 promyelocytic leukemia cells; conditions: in vitro
# [2] = in vitro
# [3] = in vivo
# [4] = tested on: hematopoietic progenitor cells in normal human peripheral blood
# [5] = ezatiostat hydrochloride in a liposomal injectable formulation, MDS trial, Raza et al. 2009
smiles,measurement,setting,value
CCOC(=O)[C@@H](N)CCC(=O)N[C@@H](CSCc1ccccc1)C(=O)N[C@@H](C(=O)OCC)c1ccccc1 [Ezatiostat],differentiation of HL-60 promyelocytic leukemia cells,[1],induce the differentiation
same,potentiation of the activity of cytotoxic agents,[2],potentiate the activity of cytotoxic agents
same,potentiation of the activity of cytotoxic agents,[3],potentiate the activity of cytotoxic agents
same,colony formation of hematopoietic progenitor cells,[4],stimulate colony formation of all three lineages
same,white blood cell production,animals in which white blood cells were depleted by treatment with cisplatin or fluorouracil,increase white blood cell production
same,white blood cell production,normal animals,increase white blood cell production
same,hematologic improvement,[5],multi-lineage hematologic improvement
same,tolerability,[5],well tolerated
